Common to all, as to format: functional
The species entered for test [1] is Rattus norvegicus. The test is described as follows: Compound was tested at 0.01 uM concentration for neurotrophic activity on cultures of E 18 SD rat cortical neurons.
For test [2], the species on record is Rattus norvegicus. The test is described as follows: Compound was tested at 0.1 uM concentration for neurotrophic activity on cultures of E 18 SD rat cortical neurons.
The species named for test [3] is Rattus norvegicus. The test is described as follows: Compound was tested at 10 uM concentration for neurotrophic activity on cultures of E 18 SD rat cortical neurons.
Test [4] is filed under the species Rattus norvegicus. The test is described as follows: Compound was tested at 1 uM concentration for neurotrophic activity on cultures of E 18 SD rat cortical neurons.
Test [5] is filed under the species Rattus norvegicus. Briefly: Compound was tested at 100 uM concentration for neurotrophic activity on cultures of E 18 SD rat cortical neurons.

Regarding `C=CCc1ccc(O)c(-c2ccc(O)c(CC=C)c2)c1` [HONOKIOL], the Control was found to be 95.6% in test [1]; 106% in test [2]; 143% in test [3]; 113% in test [4]; 29.7% in test [5].

These data come from ChEMBL document CHEMBL1135877, “Neurotrophic activity of honokiol on the cultures of fetal rat cortical neurons” (2002).
